The numbers were not newly measured in patent publication US20260240147A1, “MANCOZEB NANOSUSPENSION AND PREPARATION METHOD THEREOF” (priority 2022, published 2026), which cites them from elsewhere.

On to “manganese ethylene bis(dithiocarbamate) polymeric complex with zinc salt coordination compound [mancozeb]”, for which the “solubility in most organic solvents” value was “insoluble”. Besides, the solubility in water (pH 7.5, 25° C.) was 6.2 µg/mL.
